Test results reported in patent publication US20040063686A1, “Carboxamide compounds and their use as antagonists of a human 11cby receptor” (priority 2000, published 2004).

Molecular target: T1, 11CBy receptors (Homo sapiens, UniProt Q99705)
T1 construct: expressed in transfected cells; washed membranes
Experiment: Radioligand binding assay, [125I]-Melanin Concentrating Hormone competition on membranes from HEK293 cells stably expressing 11CBy receptors
Settings: [125I]-MCH 0.22 nM, 45 min at 37° C., pH 7.4, pKi calculated from IC50
Experimental: The activity of the compounds used in this invention may be assessed by competitive binding assays to 11CBy receptors, as follows:
Radioligand Binding Studies
Radioligand binding assays were carried out on well washed membranes from HEK293 cells stably expressing 11CBy receptors. […] Non-specific binding was defined using 0.1 mM Melanin Concentrating Hormone (obtained from Bachem). The test compounds were added at concentrations between […] and 10 pM in 10 concentration steps. Following incubation, the reaction was stopped by filtration through GF/B filters and washed with 4×1 ml of ice-cold 50 mM Tris buffer. Microscint 20 (Packard) was added to the filters and the radioactivity measured using a Packard TopCount.
Bound cpm in the presence of test compound was expressed as a fraction of the bound cpm in the absence of test compound and plotted against the concentration of compound. From this an IC50 was determined from which the pKi was calculated.

T1 sequence (Q99705 whole entry): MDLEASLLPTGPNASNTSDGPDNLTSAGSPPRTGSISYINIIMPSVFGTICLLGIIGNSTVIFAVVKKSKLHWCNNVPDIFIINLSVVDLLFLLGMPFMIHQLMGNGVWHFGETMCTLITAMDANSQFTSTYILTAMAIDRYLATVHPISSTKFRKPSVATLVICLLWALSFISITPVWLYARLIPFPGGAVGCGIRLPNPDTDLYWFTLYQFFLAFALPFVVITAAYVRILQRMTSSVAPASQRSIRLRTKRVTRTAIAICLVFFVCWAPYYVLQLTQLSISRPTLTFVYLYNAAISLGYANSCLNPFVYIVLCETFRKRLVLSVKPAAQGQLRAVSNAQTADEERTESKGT

Compound | pKi range
Biphenyl-4-carboxylic acid [4-((R)-diethylamino-hydroxy-propoxy)-3-methoxy-phenyl]-amide [Example G1] | 7.1-7.4

Same assay, conditions: [125I]-MCH 0.22 nM, 45 min at 37° C., pH 7.4, pKi calculated from IC50, read-out: pKi range (converted)

Compound | Ki
COc1cc(NC(=O)c2ccc(C3CCCCC3)cc2)ccc1OC[C@@H]1CCCN1C [Example A48] | 15.8 to 31.6 nM
COc1cc(NC(=O)c2ccc(C3CCCCC3)cc2)ccc1N1CCN(C)CC1 [Example H1, 4-Cyclohexyl-N-[3-methoxy-4-(4-methyl-piperazin-1-yl)-phenyl]-benzamide] | 39.8 to 79.4 nM

Now from value to compound:

Ki | Compound
39.8 to 79.4 nM | COc1cc(NC(=O)c2ccc(-c3ccccc3)cc2Cl)ccc1OCCN(C(C)C)C(C)C [Example C8]
15.8 to 31.6 nM | CCN(CC)CCOc1ccc(N(C)C(=O)c2ccc(-c3ccccc3)cc2)cc1OC [Example E9, Biphenyl-4-carboxylic acid [4-(2-diethylamino-ethoxy)-3-methoxy-phenyl]-methyl-amide]
39.8 to 79.4 nM | COc1cc(NC(=O)c2ccc(-c3ccccc3)nc2)ccc1OCCN(C(C)C)C(C)C [Example F4]
